Test results from PubChem BioAssay AID248 (DTP/NCI, 2004).
Inconclusive results and toxic doses are left out.

Test system: L1210 leukemia ip in BDF1 mice, survival T/C
Assay: NCI In Vivo Anticancer Drug Screen. Data for tumor model L1210 Leukemia (intraperitoneal) in B6D2F1 (BDF1) mice
Conditions: endpoint: mean survival time, higher = longer survival
How it was run: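 Transplantable tumor model; survival measured in treated vs vehicle control mice. Value = treated/control.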

[1] = dose: 100.0 mg/kg/injection, schedule: Q04DX003 (ip), vehicle: saline
[2] = dose: 200.0 mg/kg/injection, schedule: Q04DX003 (ip), vehicle: saline
[3] = dose: 100.0 mg/kg/injection, schedule: Q01DX001 (ip), vehicle: saline
[4] = dose: 200.0 mg/kg/injection, schedule: Q01DX001 (ip), vehicle: saline
[5] = dose: 400.0 mg/kg/injection, schedule: Q01DX001 (ip), vehicle: saline
[6] = dose: 100.0 mg/kg/injection, schedule: Q04DX003 (ip), vehicle: saline sonified
[7] = dose: 200.0 mg/kg/injection, schedule: Q04DX003 (ip), vehicle: saline sonified
[8] = dose: 400.0 mg/kg/injection, schedule: Q04DX003 (ip), vehicle: saline sonified
[9] = dose: 100.0 mg/kg/injection, schedule: Q01DX001 (ip), vehicle: Klucel (hydroxypropylcellulose) (HPC)
[10] = dose: 200.0 mg/kg/injection, schedule: Q01DX001 (ip), vehicle: Klucel (hydroxypropylcellulose) (HPC)
[11] = dose: 75.0 mg/kg/injection, schedule: Q01DX001 (ip), vehicle: saline
[12] = dose: 100.0 mg/kg/injection, schedule: Q01DX001 (ip), vehicle: carboxymethylcellulose (CMC)
[13] = dose: 200.0 mg/kg/injection, schedule: Q01DX001 (ip), vehicle: carboxymethylcellulose (CMC)
[14] = dose: 400.0 mg/kg/injection, schedule: Q01DX001 (ip), vehicle: carboxymethylcellulose (CMC)
[15] = dose: 400.0 mg/kg/injection, schedule: Q04DX003 (ip), vehicle: saline with Tween-80
[16] = dose: 100.0 mg/kg/injection, schedule: Q04DX002 (ip), vehicle: Klucel (hydroxypropylcellulose) (HPC)
[17] = dose: 200.0 mg/kg/injection, schedule: Q04DX002 (ip), vehicle: Klucel (hydroxypropylcellulose) (HPC)
[18] = dose: 400.0 mg/kg/injection, schedule: Q04DX002 (ip), vehicle: Klucel (hydroxypropylcellulose) (HPC)

CC1=CC(C)(C(Cl)(Cl)Cl)C=C/C1=N\OC(C)C(=O)O (stereo not drawn)
T/C (dose: 75.0 mg/kg/injection, schedule: Q01DX001 (ip), vehicle: carboxymethylcellulose (CMC)): 95 % of control
T/C [1]: 106 % of control
T/C (dose: 150.0 mg/kg/injection, schedule: Q01DX001 (ip), vehicle: carboxymethylcellulose (CMC)): 106 % of control
T/C [2]: 95 % of control
T/C (dose: 400.0 mg/kg/injection, schedule: Q04DX003 (ip), vehicle: saline): 97 % of control

SC1c2ccccc2-c2ccc(Br)cc21 (stereo not drawn)
T/C [3]: 101 % of control
T/C [4]: 99 % of control
T/C [5]: 97 % of control

N#CCC(=O)N1Cc2cc3ccccc3nc2C1
T/C [6]: 115 % of control
T/C [7]: 95 % of control
T/C [8]: 101 % of control

O=N[O-].O=N[O-].O=N[O-].O=N[O-].O=N[O-].O=N[O-].[Co+3].[Co].[NH2-].[NH2-].[NH2-].[NH2-].[NH2-].[NH2-]
T/C (dose: 25.0 mg/kg/injection, schedule: Q04DX002 (ip), vehicle: saline with Tween-80): 102 % of control
T/C (dose: 50.0 mg/kg/injection, schedule: Q04DX002 (ip), vehicle: saline with Tween-80): 115 % of control

S=C(SSC(=S)N1CCOCC1)N1CCOCC1
T/C [9]: 88 % of control
T/C [1]: 93 % of control
T/C [10]: 101 % of control
T/C [2]: 101 % of control

S=P1(Oc2ccccc2)Nc2ccccc2N1c1ccccc1 (stereo not drawn)
T/C (dose: 100.0 mg/kg/injection, schedule: Q04DX002 (ip), vehicle: saline with Tween-80): 92 % of control
T/C (dose: 200.0 mg/kg/injection, schedule: Q04DX002 (ip), vehicle: saline with Tween-80): 98 % of control
T/C (dose: 400.0 mg/kg/injection, schedule: Q04DX002 (ip), vehicle: saline with Tween-80): 95 % of control

COc1ccc2c(c1O)[C@]13CCN(C)[C@H](C2)[C@@H]1CCC(=O)C3
T/C [11]: 101 % of control
T/C (dose: 150.0 mg/kg/injection, schedule: Q01DX001 (ip), vehicle: saline): 106 % of control

Cc1c2cc3c(c1O)C(=O)CC(O3)c1ccc(O)c(c1)-c1ccc(O)c(c1)C(=O)OCC1OC(O2)C(O)C(O)C1O (stereo not drawn)
T/C (dose: 0.13 mg/kg/injection, schedule: Q01DX009 (ip), vehicle: Klucel (hydroxypropylcellulose) (HPC)): 98 % of control
T/C (dose: 0.25 mg/kg/injection, schedule: Q01DX009 (ip), vehicle: Klucel (hydroxypropylcellulose) (HPC)): 95 % of control
T/C (dose: 0.5 mg/kg/injection, schedule: Q01DX009 (ip), vehicle: Klucel (hydroxypropylcellulose) (HPC)): 101 % of control
T/C (dose: 1.0 mg/kg/injection, schedule: Q01DX009 (ip), vehicle: Klucel (hydroxypropylcellulose) (HPC)): 114 % of control

CCSC(C(OC(C)=O)C(OC(C)=O)C(OC(C)=O)C(COC(C)=O)OC(C)=O)n1cnc2c(=S)nc[nH]c21 (stereo not drawn)
T/C [6]: 102 % of control
T/C [7]: 96 % of control
T/C [8]: 91 % of control

O=[N+]([O-])c1ccc2cnn(CCO)c2c1
T/C [12]: 101 % of control
T/C [13]: 113 % of control
T/C [14]: 101 % of control

C/C=C(\Br)C(=O)N1CCCCC1
T/C [3]: 94 % of control
T/C [4]: 100 % of control
T/C [5]: 95 % of control

O=C1C(O)=C(c2ccc(Br)cc2)C(=O)C(O)=C1c1ccc(Br)cc1
T/C (dose: 75.0 mg/kg/injection, schedule: Q01DX001 (ip), vehicle: other): 103 % of control

CC(O)C[As](=O)(O)c1cccc(Cl)c1 (stereo not drawn)
T/C (dose: 12.5 mg/kg/injection, schedule: Q01DX001 (ip), vehicle: Klucel (hydroxypropylcellulose) (HPC)): 108 % of control

O=C(O)c1ccccc1C(=O)Nc1ccccc1Cl
T/C (dose: 100.0 mg/kg/injection, schedule: Q04DX003 (ip), vehicle: saline with Tween-80): 96 % of control
T/C (dose: 200.0 mg/kg/injection, schedule: Q04DX003 (ip), vehicle: saline with Tween-80): 102 % of control
T/C [15]: 102 % of control

Cc1ccc(S(=O)(=O)N/N=C/C(=O)O)cc1
T/C (dose: 10.0 mg/kg/injection, schedule: Q01DX009 (ip), vehicle: other): 116 % of control
T/C (dose: 15.0 mg/kg/injection, schedule: Q01DX009 (ip), vehicle: other): 118 % of control
T/C (dose: 27.0 mg/kg/injection, schedule: Q01DX009 (ip), vehicle: saline): 158 % of control
T/C (dose: 33.0 mg/kg/injection, schedule: Q01DX009 (ip), vehicle: other): 166 % of control
T/C (dose: 40.0 mg/kg/injection, schedule: Q01DX009 (ip), vehicle: saline): 153 % of control
T/C (dose: 50.0 mg/kg/injection, schedule: Q01DX009 (ip), vehicle: water): 108 % of control
T/C [11]: 119 % of control
T/C (dose: 90.0 mg/kg/injection, schedule: Q01DX009 (ip), vehicle: saline): 164 % of control
T/C (dose: 100.0 mg/kg/injection, schedule: Q01DX009 (ip), vehicle: saline with Tween-80): 120 % of control
T/C (dose: 100.0 mg/kg/injection, schedule: Q01DX009 (ip), vehicle: water): 92 % of control
T/C (dose: 112.0 mg/kg/injection, schedule: Q01DX009 (ip), vehicle: other): 97 % of control
T/C (dose: 144.0 mg/kg/injection, schedule: Q04DX003 (ip), vehicle: saline with Tween-80): 97 % of control
T/C (dose: 150.0 mg/kg/injection, schedule: Q01DX009 (ip), vehicle: saline with Tween-80): 116 % of control
T/C (dose: 200.0 mg/kg/injection, schedule: Q01DX009 (ip), vehicle: saline with Tween-80): 112 % of control
T/C (dose: 240.0 mg/kg/injection, schedule: Q04DX003 (ip), vehicle: saline with Tween-80): 107 % of control
T/C [15]: 108 % of control
T/C (dose: 500.0 mg/kg/injection, schedule: Q01DX009 (ip), vehicle: saline with Tween-80): 117 % of control

CC12CCC(C(=O)C1=O)C2(C)C (stereo not drawn)
T/C (dose: 50.0 mg/kg/injection, schedule: Q01DX001 (ip), vehicle: carboxymethylcellulose (CMC)): 121 % of control
T/C [12]: 103 % of control
T/C [16]: 99 % of control
T/C [13]: 109 % of control
T/C [17]: 96 % of control
T/C [14]: 113 % of control
T/C [18]: 89 % of control

CC1(C)N=C(N)N=C(N)N1c1cccc(OCCCOc2cccc(NC(=O)CBr)c2)c1
T/C (dose: 5.0 mg/kg/injection, schedule: Q01DX001 (ip), vehicle: saline): 95 % of control
T/C (dose: 10.0 mg/kg/injection, schedule: Q01DX001 (ip), vehicle: saline): 94 % of control
T/C (dose: 20.0 mg/kg/injection, schedule: Q01DX001 (ip), vehicle: saline): 101 % of control
T/C (dose: 40.0 mg/kg/injection, schedule: Q01DX001 (ip), vehicle: saline): 103 % of control

CN(C)c1ccc(/C=N/NC(=S)Nc2cccc3cccnc23)cc1
T/C [3]: 105 % of control
T/C [4]: 102 % of control
T/C [5]: 96 % of control

CC(C)SSC(C)C
T/C [3]: 105 % of control
T/C [4]: 108 % of control
T/C [5]: 89 % of control

CCCN(CCC)S(=O)(=O)c1ccc(NC(=O)OC(c2ccccc2)(c2ccccc2)c2ccccc2)cc1
T/C [3]: 100 % of control
T/C [4]: 97 % of control
T/C [5]: 94 % of control

NC(=O)c1nnn(Cc2ccccc2)c1C(N)=O
T/C [16]: 104 % of control
T/C [17]: 96 % of control
T/C [18]: 101 % of control

Cc1ccc(S(=O)(=O)OCC2C3CCC4C3C(C)(C)CCCC24C)cc1 (stereo not drawn)
T/C [9]: 107 % of control
T/C [10]: 95 % of control
T/C (dose: 400.0 mg/kg/injection, schedule: Q01DX001 (ip), vehicle: Klucel (hydroxypropylcellulose) (HPC)): 90 % of control
